Among the test systems are 786-0 renal; RPMI-8226 leukemia; RXF 393 renal; OVCAR-5 ovarian; OVCAR-8 ovarian; COLO 205 colon; MCF7 breast; CAKI-1 renal; NCI-H460 lung; NCI-H23 lung; BT-549 breast; SK-MEL-2 melanoma; UO-31 renal; SF-268 CNS; MDA-N; SK-OV-3 ovarian; HCT-116 colon; A498 renal; NCI-H226 lung; HT29 colon.
Common to all, as to test: growth of human tumour cells (NCI), 48 h

Results on 7 molecules are retold here after PubChem BioAssay (NCI).

The structures appear in SMILES notation.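 Briefly, cells in 96-well plates were exposed to five compound concentrations for 48 h, and endpoints were estimated by linear interpolation. TGI: concentration producing complete growth inhibition.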 A value given as a limit tells only on which side of the number the result lay.

Consider `CC1=C(C(=O)NNC(=O)C(N)=O)CC(C(=O)NNC(=O)C(N)=O)=C(C)N1`, for which the TGI in the experiment on 786-0 renal, with RPMI-8226 leukemia, with RXF 393 renal, in the experiment on OVCAR-5 ovarian, with OVCAR-8 ovarian and in the experiment with COLO 205 colon was above 100 µM in each case. Further, the TGI in the experiment on MCF7 breast, in the experiment on CAKI-1 renal, in the experiment with NCI-H460 lung, in the experiment on NCI-H23 lung, in the experiment with BT-549 breast and in the experiment on SK-MEL-2 melanoma was above 100 µM each time. Moreover, the TGI in the experiment on UO-31 renal, with SF-268 CNS, in the experiment with MDA-N, in the experiment on SK-OV-3 ovarian, in the experiment with HCT-116 colon and in the experiment on A498 renal was above 100 µM in each case. Also, the TGI in the experiment with NCI-H226 lung and in the experiment with HT29 colon was above 100 µM throughout.
As to `COc1ccc(C2C3=C(COC3=O)OC(C)(C)Oc3cc4c(cc32)OCO4)cc1` (stereo not given), the TGI in the experiment on 786-0 renal was above 100 µM; in the experiment on RPMI-8226 leukemia, above 100 µM; with RXF 393 renal, 79 µM; with OVCAR-5 ovarian it was above 100 µM; in the experiment with OVCAR-8 ovarian, above 100 µM; in the experiment with COLO 205 colon, 48.5 µM. Further, the TGI in the experiment on MCF7 breast was above 100 µM; with CAKI-1 renal it was above 86.9 µM; in the experiment with NCI-H460 lung, above 92.6 µM; with NCI-H23 lung, above 100 µM; in the experiment on BT-549 breast it was 89.3 µM; in the experiment on SK-MEL-2 melanoma it was above 100 µM. The TGI with UO-31 renal is 98.7 µM; in the experiment with SF-268 CNS, above 100 µM; with MDA-N, 8.97 µM; with SK-OV-3 ovarian, above 100 µM; in the experiment with HCT-116 colon it was above 85.4 µM; in the experiment on A498 renal, 85.2 µM. The TGI in the experiment on NCI-H226 lung is 99.2 µM; with HT29 colon, above 100 µM.
With `CCN(CC)CCOc1ccc(N2Cc3ccccc3C2=O)cc1`, the TGI in the experiment with 786-0 renal, in the experiment on RPMI-8226 leukemia, with RXF 393 renal, in the experiment on OVCAR-5 ovarian, in the experiment with OVCAR-8 ovarian and in the experiment on COLO 205 colon was above 10 µM throughout. The TGI in the experiment with MCF7 breast, with CAKI-1 renal, with NCI-H460 lung, with NCI-H23 lung, in the experiment with BT-549 breast and in the experiment with SK-MEL-2 melanoma was above 10 µM in each case. The TGI in the experiment on UO-31 renal, in the experiment on SF-268 CNS, with MDA-N, in the experiment with SK-OV-3 ovarian, in the experiment on HCT-116 colon and in the experiment with A498 renal was above 10 µM each time. In addition, the TGI in the experiment with NCI-H226 lung and in the experiment on HT29 colon was above 10 µM in each case.
Consider `N#Cc1nc(Sc2cnsn2)c(Sc2cnsn2)nc1C#N`, for which the TGI with 786-0 renal was 33.6 µM; with RPMI-8226 leukemia it was above 100 µM; in the experiment with RXF 393 renal, 12.3 µM; with OVCAR-5 ovarian, 38.8 µM; with OVCAR-8 ovarian, above 75.5 µM; in the experiment on COLO 205 colon, 19 µM. Moreover, the TGI with MCF7 breast is above 59.1 µM; with CAKI-1 renal it was 12.5 µM; in the experiment with NCI-H460 lung it was above 60.9 µM; with NCI-H23 lung, 46.2 µM; in the experiment on BT-549 breast, 39.2 µM; with SK-MEL-2 melanoma, 47 µM. For the same molecule, the TGI in the experiment on UO-31 renal worked out at 65.6 µM; with SF-268 CNS, 40.6 µM; with MDA-N it was 49.6 µM; with SK-OV-3 ovarian, 32.1 µM; in the experiment with HCT-116 colon, 17.1 µM; with A498 renal it was 43.8 µM. The TGI in the experiment with NCI-H226 lung was 43.7 µM; in the experiment with HT29 colon, 47.6 µM.
Turning to `COc1cccc(CCn2c(N)c(C(=O)O)c3ccc([N+](=O)[O-])cc3c2=O)c1`, the TGI with 786-0 renal was above 100 µM; in the experiment on RPMI-8226 leukemia, above 100 µM; with RXF 393 renal, above 100 µM; in the experiment on OVCAR-5 ovarian it was above 100 µM; in the experiment with OVCAR-8 ovarian, above 100 µM; in the experiment on COLO 205 colon, 45.9 µM. For the same molecule, the TGI is 57.7 µM in the experiment with MCF7 breast; above 100 µM with CAKI-1 renal; above 100 µM in the experiment with NCI-H460 lung; 64.7 µM in the experiment with NCI-H23 lung; 87.4 µM in the experiment on BT-549 breast; 68.3 µM with SK-MEL-2 melanoma. Further, the TGI with UO-31 renal, with SF-268 CNS, with MDA-N, in the experiment with SK-OV-3 ovarian, in the experiment with HCT-116 colon and in the experiment on A498 renal was above 100 µM in each case. Besides, the TGI in the experiment with NCI-H226 lung and with HT29 colon was above 100 µM in each case.
Regarding `Cc1ccc(-c2cn3c(nc4ccccc43)c(-c3ccccc3)n2)cc1`, the TGI in the experiment with 786-0 renal is 49.2 µM; in the experiment with RPMI-8226 leukemia, above 100 µM; in the experiment on RXF 393 renal it was above 61.3 µM; with OVCAR-5 ovarian it was above 100 µM; in the experiment on OVCAR-8 ovarian, above 100 µM; in the experiment with COLO 205 colon, above 100 µM. For the same molecule, the TGI with MCF7 breast is above 100 µM; in the experiment with CAKI-1 renal, above 100 µM; with NCI-H460 lung, above 100 µM; with NCI-H23 lung it was 80.8 µM; in the experiment on BT-549 breast, above 77 µM; with SK-MEL-2 melanoma, 58.3 µM. Also, the TGI in the experiment with UO-31 renal was above 73.9 µM; with SF-268 CNS it was above 96.2 µM; in the experiment on MDA-N, above 100 µM; in the experiment with SK-OV-3 ovarian it was 47.9 µM; with HCT-116 colon, above 100 µM; in the experiment on A498 renal, above 86.5 µM. For the same molecule, the TGI in the experiment on NCI-H226 lung and in the experiment on HT29 colon was above 100 µM throughout.
Regarding `Cc1nc2c(=O)n(C)c(=O)nc-2n(CCO)c1C`, the TGI in the experiment with 786-0 renal, with RPMI-8226 leukemia, in the experiment with RXF 393 renal, in the experiment with OVCAR-5 ovarian, in the experiment with OVCAR-8 ovarian and with COLO 205 colon was above 100 µM each time. The TGI in the experiment with MCF7 breast, in the experiment on CAKI-1 renal, in the experiment on NCI-H460 lung, with NCI-H23 lung, in the experiment on BT-549 breast and in the experiment on SK-MEL-2 melanoma was above 100 µM each time. Besides, the TGI with UO-31 renal, in the experiment on SF-268 CNS, in the experiment on MDA-N, with SK-OV-3 ovarian, in the experiment on HCT-116 colon and in the experiment on A498 renal was above 100 µM in each case. The TGI with NCI-H226 lung and with HT29 colon was above 100 µM in each case.
